Source: patent US20090162305A1, “FORMULATIONS OF LOW OIL CONTENT COMPRISING […] DERIVATIVES” (SYMRISE GmbH & Co. KG, priority 2006, published 2009)

Experiment: ABTS assay, cell-free in vitro test of antioxidative capacity
Assay type: biochemical
Description: ABTS assay is a cell-free in vitro test for evaluation of antioxidative capacity (literature: Re R, Pellegrini N, Proteggente A, Pannala A, Yang M, Rice-Evans C. 1999. “Antioxidant activity applying an improved ABTS radical cation decolorization assay”; Free Radic. Biol. Med. 26: 1231-7). The assay uses the intrinsic colouration of a solution prepared with the cationic radical 2,2′-azinobis(3-ethylbenzothiazoline-6-sulfonic acid) (ABTS+) and potassium persulfate, which is decolourized by addition of antioxidants (reduction of the cationic radical). This decolouration can be measured photometrically at 734 nm. The test is carried out in 96-well microtitre plates. […] All the ABTS test results result from two independent experiments and are presented as means with the associated deviation from the mean.
In order to test whether the antioxidative activity of styrylresorcinol (formula 3; CARN 85-27-8; 4-(1-phenylethyl)-1,3-dihydroxybenzene) is adversely influenced by the presence of significant amounts of oily phase, in a further experiment the antioxidative capacity of two products comprising 30 percent by weight of 2-ethylhexyl isononanoate (INCI Ethylhexyl Isononanoate; product A) and, respectively, 5 percent by weight of 2-ethylhexyl isononanoate (INCI Ethylhexyl Isononanoate; product B) was determined with the aid of ABTS assay.

CC(c1ccccc1)c1ccc(O)cc1O (stereo not drawn) [Styrylresorcinol, 4-(1-phenylethyl)-1,3-dihydroxybenzene]
reduction in the antioxidative capacity compared with the oil-free reference sample (5% of oily phase): 1.6%
deterioration in the antioxidative capacity compared with the oil-free reference sample (30% of oily phase, 0.01% styrylresorcinol): 13.5%
antioxidative capacity greater than that of the reference substance alpha-tocopherol, factor (ABTS, versus alpha-tocopherol): ~2
antioxidative capacity (ethanolic solution containing 0.01% styrylresorcinol with 30% of oily phase (product A)): 79.4%
antioxidative capacity (mixture according to the invention comprising only 5% of oily phase (product B)): 91.35
antioxidative capacity (oil-free reference sample containing only 0.01% styrylresorcinol (product C)): 92.9%
